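Tested at 5 concentrations; 48 h exposure; 96-well plates; endpoints linearly interpolated, else capped at highest concentration. Abbreviation: GI50, concentration required for 50% inhibition of growth.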 Activity calls are given as the source filed them. No stated cut-off is given here; in the data, active = GI50 up to about 1.1 µM and inactive = higher.
What was measured:
Experiment in all cases: NCI tumour cell line growth inhibition, 48 h
SF-295 = test system: SF-295
HOP-92 = test system: HOP-92
HCT-15 = test system: HCT-15
SK-MEL-2 = test system: SK-MEL-2
U-251 = test system: U-251
OVCAR-3 = test system: OVCAR-3
NCI-H522 = test system: NCI-H522
SNB-19 = test system: SNB-19
SF-268 = test system: SF-268
NCI-H460 = test system: NCI-H460
MDA-MB-231 = test system: MDA-MB-231
786-0 = test system: 786-0
COLO 205 = test system: COLO 205
KM12 = test system: KM12
K562 = test system: K562
HT-29 = test system: HT-29
Hs-578T = test system: Hs-578T
RPMI-8226 = test system: RPMI-8226
SK-MEL-28 = test system: SK-MEL-28
SR = test system: SR

Row | SMILES | GI50 (SF-295) | GI50 (HOP-92) | GI50 (HCT-15) | GI50 (SK-MEL-2) | GI50 (U-251) | GI50 (OVCAR-3) | GI50 (NCI-H522) | GI50 (SNB-19) | GI50 (SF-268) | GI50 (NCI-H460) | GI50 (MDA-MB-231) | GI50 (786-0) | GI50 (COLO 205) | GI50 (KM12) | GI50 (K562) | GI50 (HT-29) | GI50 (Hs-578T) | GI50 (RPMI-8226) | GI50 (SK-MEL-28) | GI50 (SR)
1 | N/C(=N\NC(=O)c1nc2ccccc2s1)c1ccccn1 | 3.83 µM (inactive) | > 34 µM (inactive) | 2.56 µM | 19.5 µM (inactive) | 4.79 µM (inactive) | 3.92 µM (inactive) | 13.8 µM (inactive) | 16 µM (inactive) | 6.87 µM (inactive) | 2.85 µM (inactive) | 14 µM (inactive) | 4.33 µM (inactive) | 4.73 µM (inactive) | 8.79 µM (inactive) | 4.5 µM (inactive) | 4.08 µM (inactive) | > 100 µM (inactive) | 2.46 µM (inactive) | 43.2 µM (inactive) | 
2 | CO[C@H]1C=C[C@]23c4cc5c(cc4CN(CC2O)[C@@H]3C1)OCO5 (stereo partly drawn) | 0.375 µM (active) | 0.336 µM (active) | 1.91 µM | 1.08 µM (active) | 2.51 µM (inactive) | 1.9 µM (inactive) | 1.72 µM (inactive) | 2.17 µM (inactive) | 2.17 µM (inactive) | 1.53 µM (inactive) | 2.67 µM (inactive) | 1.91 µM (inactive) | 2.58 µM (inactive) | 3.09 µM (inactive) | 2.04 µM (inactive) | 2.06 µM (inactive) | 2.97 µM (inactive) | 2.82 µM (inactive) | 2.17 µM (inactive) | 
3 | CCCCc1ccc(Nc2nc(N)c3[nH]cnc3n2)cc1 | 25.9 µM (inactive) | 15.5 µM (inactive) | 25 µM | 22.4 µM (inactive) | 24.4 µM (inactive) | 20.7 µM (inactive) | 14.7 µM (inactive) | 17.8 µM (inactive) | 14.9 µM (inactive) | 22.9 µM (inactive) | 19.8 µM (inactive) | 17.2 µM (inactive) | 18.3 µM (inactive) | 18.3 µM (inactive) | 28.1 µM (inactive) | 13.8 µM (inactive) | 17.7 µM (inactive) | 25.4 µM (inactive) | 22.5 µM (inactive) | 
4 | Nc1n[n+]([O-])c2cnccc2[n+]1[O-] | 45.6 µM (inactive) |  | 32 µM | > 100 µM (inactive) | 58.2 µM (inactive) | 35.4 µM (inactive) | > 100 µM (inactive) | > 100 µM (inactive) | 93.8 µM (inactive) | 34.8 µM (inactive) | 42.9 µM (inactive) | 70.6 µM (inactive) | 39.6 µM (inactive) | 58.7 µM (inactive) |  | 39.1 µM (inactive) | > 100 µM (inactive) | > 100 µM (inactive) | 82.4 µM (inactive) | 54.7 µM (inactive)
5 | Cn1nc(-c2ccccc2)c2c(-c3ccccc3)c3cc(Cl)ccc3nc21 | 97.1 µM (inactive) |  | 12.7 µM | > 100 µM (inactive) | > 100 µM (inactive) | > 100 µM (inactive) | 45 µM (inactive) | > 100 µM (inactive) | > 100 µM (inactive) | 75.7 µM (inactive) | > 100 µM (inactive) | > 100 µM (inactive) |  | > 100 µM (inactive) | > 100 µM (inactive) | 49.3 µM (inactive) | > 76.4 µM (inactive) | > 100 µM (inactive) | > 100 µM (inactive) | > 100 µM (inactive)
6 | CCOC(=O)c1nnc2c(C#N)c(-c3ccccc3)c(C)n2c1N | 34.1 µM (inactive) |  | 37.5 µM | 42.4 µM (inactive) | 38 µM (inactive) | 29.4 µM (inactive) | 27.7 µM (inactive) | 21.3 µM (inactive) | 37.7 µM (inactive) | 39.8 µM (inactive) | 51.8 µM (inactive) | 56.1 µM (inactive) | 32.9 µM (inactive) | 30.6 µM (inactive) | 31.8 µM (inactive) | 33.7 µM (inactive) | 24.6 µM (inactive) | 22.7 µM (inactive) | 21.6 µM (inactive) | 36.1 µM (inactive)
7 | CC(=O)OC12CC(C(F)(F)F)(C(F)(F)F)OC1(OC(C)=O)CC(C(F)(F)F)(C(F)(F)F)O2 (stereo not drawn) | 6.76 µM (inactive) |  | 11.5 µM | 5.75 µM (inactive) | 1.63 µM (inactive) | 2.02 µM (inactive) | 1.24 µM (inactive) | 3.15 µM (inactive) | 1.58 µM (inactive) | 4.05 µM (inactive) | 6.34 µM (inactive) | 2.9 µM (inactive) | 3.95 µM (inactive) | 2.33 µM (inactive) | 0.612 µM (active) | 5.28 µM (inactive) | 13.3 µM (inactive) | 0.7 µM (active) | 4.54 µM (inactive) | 2.55 µM (inactive)
8 | O=C(Nc1nnc(-c2ccc(Cl)cc2)o1)C(SC(=S)N1CCOCC1)c1ccccc1 (stereo not drawn) | 13.1 µM (inactive) |  | 6.03 µM | 14.7 µM (inactive) | 12.5 µM (inactive) | 9.38 µM (inactive) | 16.3 µM (inactive) | 27 µM (inactive) |  | 6.44 µM (inactive) | 30.3 µM (inactive) | 9.35 µM (inactive) | 13.7 µM (inactive) | 13.7 µM (inactive) | 11.6 µM (inactive) | 18.8 µM (inactive) | 46.2 µM (inactive) | 9.48 µM (inactive) | 23.2 µM (inactive) | 8.09 µM (inactive)
9 | COc1ccc(Oc2cccc(C3C4C(=O)N(c5ccc(C)c(Cl)c5)C(=O)C4ON3C(C(N)=O)c3ccccc3)c2)cc1 (stereo not drawn) | 35.9 µM (inactive) | 24 µM (inactive) | 8.39 µM | 11.2 µM (inactive) | 16.6 µM (inactive) | 16.7 µM (inactive) | 10.6 µM (inactive) | 24 µM (inactive) | 18.3 µM (inactive) | 14.8 µM (inactive) | 34 µM (inactive) | 16.1 µM (inactive) | 15.1 µM (inactive) | 18 µM (inactive) | 16.6 µM (inactive) | 9.33 µM (inactive) | 17.9 µM (inactive) |  | 41.5 µM (inactive) | 9.98 µM (inactive)
10 | CN(C(=O)[C@@H](NC(=O)OC(C)(C)C)c1ccccc1)[C@H]1CCCC[C@@H]1N1CCCC1 | > 100 µM (inactive) |  | > 100 µM | > 100 µM (inactive) | > 100 µM (inactive) | > 100 µM (inactive) | > 100 µM (inactive) | > 100 µM (inactive) | > 100 µM (inactive) |  | > 100 µM (inactive) | > 100 µM (inactive) | > 100 µM (inactive) | > 100 µM (inactive) | > 100 µM (inactive) | > 100 µM (inactive) | > 100 µM (inactive) | > 100 µM (inactive) | > 100 µM (inactive) | > 100 µM (inactive)
11 | CCN(CC)Cc1ccc(Nc2c3ccccc3nc3ccccc23)cc1 | 2.62 µM (inactive) | 2.79 µM (inactive) | 1 µM | 2.99 µM (inactive) | 2.16 µM (inactive) | 3.03 µM (inactive) | 1.41 µM (inactive) | 1.35 µM (inactive) | 2.82 µM (inactive) | 1.19 µM (inactive) | 1.66 µM (inactive) | 1.67 µM (inactive) | 1.71 µM (inactive) | 3.17 µM (inactive) | 1.6 µM (inactive) | 1.91 µM (inactive) | 4.86 µM (inactive) |  | 1.61 µM (inactive) | 2.17 µM (inactive)
12 | C#CCOC(=O)C(N)CCSC (stereo not drawn) | > 100 µM (inactive) | > 100 µM (inactive) |  | > 100 µM (inactive) | > 100 µM (inactive) | > 100 µM (inactive) | > 100 µM (inactive) |  | > 100 µM (inactive) |  | > 100 µM (inactive) | > 100 µM (inactive) | > 100 µM (inactive) | > 100 µM (inactive) |  | > 100 µM (inactive) | > 100 µM (inactive) | > 100 µM (inactive) | > 100 µM (inactive) | > 100 µM (inactive)
13 | Cc1cc(C)cc(Nc2nnc3n2S(=O)(=O)c2cc(C)c(Cl)cc2S3)c1 | 7.03 µM (inactive) |  | 4.37 µM | 2.7 µM (inactive) | 3.24 µM (inactive) | 4.27 µM (inactive) | 3.56 µM (inactive) | 4.3 µM (inactive) | 3.81 µM (inactive) | 4.29 µM (inactive) | 4.73 µM (inactive) | 4.94 µM (inactive) | 4.72 µM (inactive) | 8.38 µM (inactive) | 3.01 µM (inactive) | 7.26 µM (inactive) | 2.94 µM (inactive) | 2.88 µM (inactive) | 17.6 µM (inactive) | 2.09 µM (inactive)
14 | N#Cc1ncn(-c2ccccc2)c1N | > 100 µM (inactive) |  | > 100 µM | > 100 µM (inactive) | > 100 µM (inactive) | > 100 µM (inactive) | > 100 µM (inactive) | > 100 µM (inactive) | > 100 µM (inactive) | > 100 µM (inactive) | > 100 µM (inactive) | > 100 µM (inactive) | > 100 µM (inactive) | > 100 µM (inactive) | > 100 µM (inactive) | > 100 µM (inactive) | > 100 µM (inactive) | > 100 µM (inactive) | > 100 µM (inactive) | > 100 µM (inactive)
15 | CCCC#CC(O)(C(=O)OC1CCN(C)CC1)C1CCCCC1 (stereo not drawn) | > 100 µM (inactive) | 85.7 µM (inactive) | > 100 µM | > 100 µM (inactive) | > 100 µM (inactive) | > 100 µM (inactive) |  | > 100 µM (inactive) | > 100 µM (inactive) | > 100 µM (inactive) | > 100 µM (inactive) | > 100 µM (inactive) | 94.6 µM (inactive) | > 100 µM (inactive) | > 100 µM (inactive) | 55.2 µM (inactive) | 14.1 µM (inactive) | > 100 µM (inactive) | > 100 µM (inactive) | > 100 µM (inactive)

— ChEMBL document CHEMBL1201862, “PubChem BioAssay data set” (2004)
